Measurements from US4264590A, “Antibacterial peptide” (Abbott Laboratories, priority 1980, dated 1981).

Experiments:
E. coli (Juhl) [1] = assay: two-fold agar dilution assay, M.I.C.; format: cell-based
From the text: (§1) In a two-fold agar dilution assay with E. coli (Juhl) and E. coli 6880 as test organisms, compounds of Examples 1 and 2 show a minimum inhibitory concentration (M.I.C.) of >800 ppm. […] The combination of the new peptide with D-cycloserine produces the following M.I.C. test results.

E. coli 6880 = assay: two-fold agar dilution assay, M.I.C.; format: cell-based
From the text: as §1

E. coli (Juhl) [2] = assay: serial dilution in synthetic medium in test tubes, MIC and F.I.C. index (Table II); format: cell-based; details: for MIC: Escherichia coli
Protocol: The halogenated peptides alone, the antibiotic alone or mixtures of the halogenated peptides and selected antibiotics are prepared in sterile concentrated aqueous solutions at the desired ratios. Serial dilutions are made to give a range of concentrations of the test substances. Samples of the dilutions are mixed with an appropriate sterile synthetic medium in test tubes. The tubes are then inoculated with an appropriate test organism and incubated at 35°-37° C. for 16-20 hours. Minimum inhibitory concentrations, i.e., that concentration which inhibits visible growth, are read and the fractional inhibitory concentration indices (F.I.C.) are calculated. In all instances, E. coli (Juhl) was used as the infecting microorganism.

E. coli (305-101) = assay: mouse protection test, CD50 (Table III); format: in vivo
Protocol: (§2) Charles River mice, weighing approximately 20 g. each, are infected intraperitoneally with 10-100 times the LD of the infecting organism. At predetermined intervals post-infection, e.g., 1 and 5 hours, mice are dosed subcutaneously with graded doses of the halogenated peptide, antibiotic and combination thereof. The number of mice surviving each treatment for 7 days post-infection is observed and the CD50 is calculated. The fractional inhibitory concentration (F.I.C.) for each combination is calculated in the usual manner.
(§3) In this table, the following infecting microorganisms were used:
(§4) The infecting organisms are listed by the above code; the compounds are listed by their Example number. In all instances, the dipeptide and D-cycloserine were tested at a ratio of 10:1. The CD50 combination column lists only the amount of peptide present; the D-cycloserine amount is 10% of the listed amount.

S. aureus (Smith) = assay: mouse protection test, CD50 (Table III); format: in vivo
Protocol: as §2, §3, §4

Strep. pyrogenes (C 203) = assay: mouse protection test, CD50 (Table III); format: in vivo
Protocol: as §2, §3
Strep. pyrogenes (C 203).
as §4

[3] = Escherichia coli, substance alone, agar dilution, read-out: minimum inhibitory concentration (M.I.C.)
[4] = peptide:D-cycloserine ratio 1:1
[5] = peptide:D-cycloserine ratio 1:8
[6] = peptide:D-cycloserine ratio 8:1
[7] = combination with D-cycloserine, ratio Pep/Antib. 1:1
[8] = combination with D-cycloserine, ratio Pep/Antib. 1:8
[9] = combination with D-cycloserine, ratio Pep/Antib. 8:1

## Br.C[C@H](N)C(=O)N[C@H](CF)C(=O)O [Example 1, L-alanyl-β-fluoro-D-alanine hydrobromide]
E. coli (Juhl) [1]; [3]
  MIC: > 800 µg/mL
E. coli (Juhl) [1]; [4]
  M.I.C. of combination, D-cycloserine part: 0.2 ppm
  M.I.C. of combination, peptide part: 0.2 ppm
E. coli (Juhl) [1]; [5]
  M.I.C. of combination, D-cycloserine part: 1.56 ppm
  M.I.C. of combination, peptide part: 0.2 ppm
E. coli (Juhl) [1]; [6]
  M.I.C. of combination, D-cycloserine part: 0.05 ppm
  M.I.C. of combination, peptide part: 0.39 ppm
E. coli 6880; [3]
  MIC: > 800 µg/mL
E. coli 6880; [4]
  M.I.C. of combination, D-cycloserine part: 0.1 ppm
  M.I.C. of combination, peptide part: 0.1 ppm
E. coli 6880; [5]
  M.I.C. of combination, D-cycloserine part: 0.78 ppm
  M.I.C. of combination, peptide part: 0.1 ppm
E. coli 6880; [6]
  M.I.C. of combination, D-cycloserine part: 0.05 ppm
  M.I.C. of combination, peptide part: 0.39 ppm
E. coli (Juhl) [2]; combination with D-cycloserine, ratio Pep/Antib. 1:1, read-out: MIC ppm Pep/Antib., peptide part
  MIC: 0.2 µg/mL
E. coli (Juhl) [2]; combination with D-cycloserine, ratio Pep/Antib. 1:8, read-out: MIC ppm Pep/Antib., peptide part
  MIC: 0.2 µg/mL
E. coli (Juhl) [2]; combination with D-cycloserine, ratio Pep/Antib. 8:1, read-out: MIC ppm Pep/Antib., peptide part
  MIC: 0.39 µg/mL
E. coli (Juhl) [2]; peptide alone, E. coli (Juhl), 35-37° C., 16-20 hours, read-out: MIC ppm Peptide
  MIC: > 800 µg/mL
E. coli (Juhl) [2]; [7]
  F.I.C. Index: 0.02
  MIC ppm Pep/Antib., antibiotic part: 0.2 ppm
E. coli (Juhl) [2]; [8]
  F.I.C. Index: 0.12
  MIC ppm Pep/Antib., antibiotic part: 1.56 ppm
E. coli (Juhl) [2]; [9]
  F.I.C. Index: 0.004
  MIC ppm Pep/Antib., antibiotic part: 0.05 ppm
E. coli (305-101); E. coli (305-101) in mice, dipeptide:D-cycloserine 10:1
  F.I.C. Index: 0.90
E. coli (305-101); E. coli (305-101) in mice, dipeptide:D-cycloserine 10:1, amount of peptide only listed, D-cycloserine is 10% of it
  CD50 (mg/kg) Combination: 25 mg/kg
E. coli (305-101); mice infected i.p. with E. coli (305-101), dosed subcutaneously, 7 days survival, peptide alone
  CD50 (mg/kg) Peptide: 26 mg/kg
S. aureus (Smith); S. aureus (Smith) in mice, dipeptide:D-cycloserine 10:1
  F.I.C. Index: < 0.37
S. aureus (Smith); S. aureus (Smith) in mice, dipeptide:D-cycloserine 10:1, amount of peptide only listed, D-cycloserine is 10% of it
  CD50 (mg/kg) Combination: < 3.1 mg/kg
S. aureus (Smith); mice infected i.p. with S. aureus (Smith), dosed subcutaneously, 7 days survival, peptide alone
  CD50 (mg/kg) Peptide: 9.2 mg/kg
Strep. pyrogenes (C 203); Strep. pyrogenes (C 203) in mice, dipeptide:D-cycloserine 10:1
  F.I.C. Index: 0.60
Strep. pyrogenes (C 203); Strep. pyrogenes (C 203) in mice, dipeptide:D-cycloserine 10:1, amount of peptide only listed, D-cycloserine is 10% of it
  CD50 (mg/kg) Combination: 10.9 mg/kg
Strep. pyrogenes (C 203); mice infected i.p. with Strep. pyrogenes (C 203), dosed subcutaneously, 7 days survival, peptide alone
  CD50 (mg/kg) Peptide: 17.8 mg/kg
